Laboratory results taken from US11395857B2, “Radiolabeled melanocortin 1 receptor-specific alpha-melanocyte-stimulating hormone analogues for imaging or therapy” (PROVINCIAL HEALTH SERVICES AUTHORITY, priority 2018, dated 2022).
Read-outs that look alike come from different tables or passages of the source.

Assays:
[1] = Biodistribution of 177Lu-labeled αMSH analogues in mice bearing B16F10 mouse melanoma; type: in vivo, C57BL/6J mice; conditions: mouse, iv, total radioactivity, C57BL/6J mice, B16F10 melanoma
Procedure: (§1) The B16-F10 mouse melanoma cells were cultured and inoculated in mice as described in Example 1.
(§2) For biodistribution studies, approximately 1-2 MBq of ^177Lu-labeled αMSH analogues via tail vein under anesthesia. At 1, 4, 24, and 120 h p.i., the mice were euthanized by CO2 inhalation. Organs/tissues were harvested and the radioactivity was measured as described in Example 1.

[2] = system: B16F10 mouse melanoma; assay: as above; type: in vivo, C57BL/6J mice; conditions: C57BL/6J mice, B16F10 melanoma
Procedure: as §1, §2

## CCCC[C@H](NC(=O)CN1CCC(NC(=O)[C@H](CCCCNC(=O)CN2CCN(CC(=O)O)CCN(CC(=O)O)CCN(CC(=O)O)CC2)NC(=O)[C@H](CCC(=O)O)NC(=O)CCCc2ccc(I)cc2)CC1)C(=O)N[C@H]1CC(=O)NCCCC[C@@H](C(N)=O)N(C)C(=O)[C@H](Cc2c[nH]c3ccccc23)N(C)C(=O)[C@H](CCCNC(=N)N)N(C)C(=O)[C@@H](Cc2ccccc2)NC(=O)[C@H](Cc2c[nH]cn2)N(C)C1=O [^177Lu-labeled CCZ01088, metal not drawn]
[1]; male, seminal glands, 1 h p.i., read-out: Biodistribution, Seminal glands
  tissue uptake at 1 h: 0.52 ± 0.15 %ID/g
[1]; male, seminal glands, 4 h p.i., read-out: Biodistribution, Seminal glands
  tissue uptake at 4 h: 0.14 ± 0.04 %ID/g
[1]; male, seminal glands, 24 h p.i., read-out: Biodistribution, Seminal glands
  tissue uptake at 24 h: 0.08 ± 0.07 %ID/g
[1]; male, seminal glands, 120 h p.i., read-out: Biodistribution, Seminal glands
  tissue uptake at 120 h: 0.04 ± 0.03 %ID/g
[1]; male, testes, 4 h p.i., read-out: Biodistribution, Testes
  tissue uptake at 4 h: 0.33 ± 0.08 %ID/g
[1]; male, testes, 24 h p.i., read-out: Biodistribution, Testes
  tissue uptake at 24 h: 0.17 ± 0.01 %ID/g
[1]; male, testes, 120 h p.i., read-out: Biodistribution, Testes
  tissue uptake at 120 h: 0.11 ± 0.01 %ID/g
[1]; adrenal glands, 1 h p.i., read-out: Biodistribution, Adrenal glands
  tissue uptake at 1 h: 3.69 ± 2.09 %ID/g
[1]; adrenal glands, 4 h p.i., read-out: Biodistribution, Adrenal glands
  tissue uptake at 4 h: 0.88 ± 0.41 %ID/g
[1]; adrenal glands, 24 h p.i., read-out: Biodistribution, Adrenal glands
  tissue uptake at 24 h: 0.62 ± 0.34 %ID/g
[1]; adrenal glands, 120 h p.i., read-out: Biodistribution, Adrenal glands
  tissue uptake at 120 h: 0.34 ± 0.23 %ID/g
[1]; blood, 1 h p.i., read-out: Biodistribution, Blood
  tissue uptake at 1 h: 7.41 ± 1.64 %ID/g
[1]; blood, 4 h p.i., read-out: Biodistribution, Blood
  tissue uptake at 4 h: 1.44 ± 0.39 %ID/g
[1]; blood, 24 h p.i., read-out: Biodistribution, Blood
  tissue uptake at 24 h: 0.09 ± 0.02 %ID/g
[1]; blood, 120 h p.i., read-out: Biodistribution, Blood
  tissue uptake at 120 h: 0.01 %ID/g
[1]; bone, 1 h p.i., read-out: Biodistribution, Bone
  tissue uptake at 1 h: 0.98 ± 0.12 %ID/g
[1]; bone, 4 h p.i., read-out: Biodistribution, Bone
  tissue uptake at 4 h: 0.3 ± 0.08 %ID/g
[1]; bone, 24 h p.i., read-out: Biodistribution, Bone
  tissue uptake at 24 h: 0.23 ± 0.04 %ID/g
[1]; bone, 120 h p.i., read-out: Biodistribution, Bone
  tissue uptake at 120 h: 0.13 ± 0.09 %ID/g
[1]; brain, 1 h p.i., read-out: Biodistribution, Brain
  tissue uptake at 1 h: 0.13 ± 0.02 %ID/g
[1]; brain, 4 h p.i., read-out: Biodistribution, Brain
  tissue uptake at 4 h: 0.04 ± 0.02 %ID/g
[1]; brain, 24 h p.i., read-out: Biodistribution, Brain
  tissue uptake at 24 h: 0.02 ± 0.01 %ID/g
[1]; brain, 120 h p.i., read-out: Biodistribution, Brain
  tissue uptake at 120 h: 0.01 ± 0.01 %ID/g
[1]; fat, 1 h p.i., read-out: Biodistribution, Fat
  tissue uptake at 1 h: 0.65 ± 0.37 %ID/g
[1]; fat, 4 h p.i., read-out: Biodistribution, Fat
  tissue uptake at 4 h: 0.16 ± 0.07 %ID/g
[1]; fat, 24 h p.i., read-out: Biodistribution, Fat
  tissue uptake at 24 h: 0.06 ± 0.04 %ID/g
[1]; fat, 120 h p.i., read-out: Biodistribution, Fat
  tissue uptake at 120 h: 0.03 ± 0.01 %ID/g
[1]; heart, 1 h p.i., read-out: Biodistribution, Heart
  tissue uptake at 1 h: 1.84 ± 0.31 %ID/g
[1]; heart, 4 h p.i., read-out: Biodistribution, Heart
  tissue uptake at 4 h: 0.4 ± 0.1 %ID/g
[1]; heart, 24 h p.i., read-out: Biodistribution, Heart
  tissue uptake at 24 h: 0.13 ± 0.02 %ID/g
[1]; heart, 120 h p.i., read-out: Biodistribution, Heart
  tissue uptake at 120 h: 0.07 ± 0.02 %ID/g
[1]; intestine, 1 h p.i., read-out: Biodistribution, Intestine
  tissue uptake at 1 h: 1.39 ± 0.37 %ID/g
[1]; intestine, 4 h p.i., read-out: Biodistribution, Intestine
  tissue uptake at 4 h: 0.37 ± 0.11 %ID/g
[1]; intestine, 24 h p.i., read-out: Biodistribution, Intestine
  tissue uptake at 24 h: 0.18 ± 0.03 %ID/g
[1]; intestine, 120 h p.i., read-out: Biodistribution, Intestine
  tissue uptake at 120 h: 0.43 ± 0.55 %ID/g
[1]; kidneys, 1 h p.i., read-out: Biodistribution, Kidneys
  tissue uptake at 1 h: 13.2 ± 3.61 %ID/g
[1]; kidneys, 4 h p.i., read-out: Biodistribution, Kidneys
  tissue uptake at 4 h: 13.5 ± 3.47 %ID/g
[1]; kidneys, 24 h p.i., read-out: Biodistribution, Kidneys
  tissue uptake at 24 h: 8.1 ± 2.24 %ID/g
[1]; kidneys, 120 h p.i., read-out: Biodistribution, Kidneys
  tissue uptake at 120 h: 1.85 ± 0.57 %ID/g
[1]; liver, 1 h p.i., read-out: Biodistribution, Liver
  tissue uptake at 1 h: 2.72 ± 0.27 %ID/g
[1]; liver, 4 h p.i., read-out: Biodistribution, Liver
  tissue uptake at 4 h: 1.98 ± 0.41 %ID/g
[1]; liver, 24 h p.i., read-out: Biodistribution, Liver
  tissue uptake at 24 h: 4.7 ± 3.76 %ID/g
[1]; liver, 120 h p.i., read-out: Biodistribution, Liver
  tissue uptake at 120 h: 0.55 ± 0.18 %ID/g
[1]; lungs, 1 h p.i., read-out: Biodistribution, Lungs
  tissue uptake at 1 h: 5.51 ± 1.75 %ID/g
[1]; lungs, 4 h p.i., read-out: Biodistribution, Lungs
  tissue uptake at 4 h: 2.34 ± 1.21 %ID/g
[1]; lungs, 24 h p.i., read-out: Biodistribution, Lungs
  tissue uptake at 24 h: 1.19 ± 0.81 %ID/g
[1]; lungs, 120 h p.i., read-out: Biodistribution, Lungs
  tissue uptake at 120 h: 0.1 ± 0.05 %ID/g
[1]; muscle, 1 h p.i., read-out: Biodistribution, Muscle
  tissue uptake at 1 h: 0.76 ± 0.14 %ID/g
[1]; muscle, 4 h p.i., read-out: Biodistribution, Muscle
  tissue uptake at 4 h: 0.17 ± 0.04 %ID/g
[1]; muscle, 24 h p.i., read-out: Biodistribution, Muscle
  tissue uptake at 24 h: 0.06 ± 0.02 %ID/g
[1]; muscle, 120 h p.i., read-out: Biodistribution, Muscle
  tissue uptake at 120 h: 0.03 ± 0.01 %ID/g
[1]; pancreas, 1 h p.i., read-out: Biodistribution, Pancreas
  tissue uptake at 1 h: 1.23 ± 0.18 %ID/g
[1]; pancreas, 4 h p.i., read-out: Biodistribution, Pancreas
  tissue uptake at 4 h: 0.31 ± 0.1 %ID/g
[1]; pancreas, 24 h p.i., read-out: Biodistribution, Pancreas
  tissue uptake at 24 h: 0.1 ± 0.01 %ID/g
[1]; pancreas, 120 h p.i., read-out: Biodistribution, Pancreas
  tissue uptake at 120 h: 0.06 ± 0.01 %ID/g
[1]; spleen, 1 h p.i., read-out: Biodistribution, Spleen
  tissue uptake at 1 h: 1.99 ± 0.38 %ID/g
[1]; spleen, 4 h p.i., read-out: Biodistribution, Spleen
  tissue uptake at 4 h: 0.83 ± 0.1 %ID/g
[1]; spleen, 24 h p.i., read-out: Biodistribution, Spleen
  tissue uptake at 24 h: 1 ± 0.35 %ID/g
[1]; spleen, 120 h p.i., read-out: Biodistribution, Spleen
  tissue uptake at 120 h: 0.3 ± 0.12 %ID/g
[1]; stomach, 1 h p.i., read-out: Biodistribution, Stomach
  tissue uptake at 1 h: 1.2 ± 0.45 %ID/g
[1]; stomach, 4 h p.i., read-out: Biodistribution, Stomach
  tissue uptake at 4 h: 0.26 ± 0.14 %ID/g
[1]; stomach, 24 h p.i., read-out: Biodistribution, Stomach
  tissue uptake at 24 h: 0.31 ± 0.17 %ID/g
[1]; stomach, 120 h p.i., read-out: Biodistribution, Stomach
  tissue uptake at 120 h: 1.83 ± 2.7 %ID/g
[1]; thyroid, 1 h p.i., read-out: Biodistribution, Thyroid
  tissue uptake at 1 h: 1.68 ± 0.26 %ID/g
[1]; thyroid, 4 h p.i., read-out: Biodistribution, Thyroid
  tissue uptake at 4 h: 0.51 ± 0.13 %ID/g
[1]; thyroid, 24 h p.i., read-out: Biodistribution, Thyroid
  tissue uptake at 24 h: 0.24 ± 0.04 %ID/g
[1]; thyroid, 120 h p.i., read-out: Biodistribution, Thyroid
  tissue uptake at 120 h: 0.15 ± 0.03 %ID/g
[1]; tumour/blood, 1 h p.i., read-out: Tumour/blood
  tissue to tissue ratio at 1 h: 1.42 ± 0.2
[1]; tumour/blood, 4 h p.i., read-out: Tumour/blood
  tissue to tissue ratio at 4 h: 7.97 ± 2.18
[1]; tumour/blood, 24 h p.i., read-out: Tumour/blood
  tissue to tissue ratio at 24 h: 60.6 ± 23.8
[1]; tumour/blood, 120 h p.i., read-out: Tumour/blood
  tissue to tissue ratio at 120 h: 84.4 ± 47.2
[1]; tumour/kidney, 1 h p.i., read-out: Tumour/kidney
  tissue to tissue ratio at 1 h: 0.8 ± 0.09
[1]; tumour/kidney, 4 h p.i., read-out: Tumour/kidney
  tissue to tissue ratio at 4 h: 0.85 ± 0.24
[1]; tumour/kidney, 24 h p.i., read-out: Tumour/kidney
  tissue to tissue ratio at 24 h: 0.68 ± 0.22
[1]; tumour/kidney, 120 h p.i., read-out: Tumour/kidney
  tissue to tissue ratio at 120 h: 0.45 ± 0.21
[1]; tumour/muscle, 1 h p.i., read-out: Tumour/muscle
  tissue to tissue ratio at 1 h: 13.8 ± 2.48
[1]; tumour/muscle, 4 h p.i., read-out: Tumour/muscle
  tissue to tissue ratio at 4 h: 65.4 ± 13.7
[1]; tumour/muscle, 24 h p.i., read-out: Tumour/muscle
  tissue to tissue ratio at 24 h: 104 ± 53
[1]; tumour/muscle, 120 h p.i., read-out: Tumour/muscle
  tissue to tissue ratio at 120 h: 35.6 ± 22.4
[1]; urine, 1 h p.i.
  excreta dose per gram or mL at 1 h: 322 ± 306 %ID/g
[1]; urine, 4 h p.i.
  excreta dose per gram or mL at 4 h: 106 ± 97.1 %ID/g
[1]; urine, 24 h p.i.
  excreta dose per gram or mL at 24 h: 3.17 ± 1.25 %ID/g
[1]; urine, 120 h p.i.
  excreta dose per gram or mL at 120 h: 0.51 ± 0.21 %ID/g
[2]; 1 h p.i.
  Biodistribution, B16F10 tumour: 10.6 ± 2.95 % ID/g
[2]; 4 h p.i.
  Biodistribution, B16F10 tumour: 10.9 ± 2.22 % ID/g
[2]; 24 h p.i.
  Biodistribution, B16F10 tumour: 5.50 ± 2.36 % ID/g
[2]; 120 h p.i.
  Biodistribution, B16F10 tumour: 0.88 ± 0.58 % ID/g
